{
  "source": "patent US20240245711A1",
  "about": "“A 19-NOR C3,3-DISUBSTITUTED C21-N-PYRAZOLYL STEROID FOR THE TREATMENT OF MAJOR DEPRESSIVE DISORDER” (Sage Therapeutics, Inc., priority 2021, published 2024)",
  "test_system": "adult subjects with Major Depressive Disorder",
  "experiment": "Phase 3 open-label 1-year study: HAM-D total score, response and remission",
  "assay_type": "in vivo, human",
  "text": "Secondary Objective: To assess the need for re-treatment with Compound (1) following initial treatment in adults with MDD currently experiencing an MDE over a 1-year period, and to assess the response of initial treatment and re-treatment(s) with Compound (1) following an initial 2-week treatment period in adults with MDD currently experiencing an MDE over a 1-year period.\nSecondary Endpoints: The need for re-treatment with Compound (1) as assessed by: time to first re-treatment (Kaplan-Meier curves), number of subjects achieving the requirements for re-treatment, number of re-treatment cycles for each subject, the response of initial treatment and/or re-treatment as assessed by: change from baseline in the 17-item Hamilton Rating Scale for Depression (HAM-D) total score at the end of each 14-day treatment (initial and/or re-treatment) period, HAM-D response at the end of each 14-day treatment (initial and/or re-treatment) period, defined as a ≥50% reduction in HAM-D score from baseline, HAM-D remission at the end of each 14-day treatment (initial and/or re-treatment) period, defined as HAM-D total score≤7, Clinical Global Impression-Improvement (CGI-I) response, defined as “much improved” or “very much improved”, at the end of each 14-day treatment (initial and/or re-treatment) period, change from baseline in Clinical Global Impression-Severity (CGI-S) score at the end of each 14-day treatment (initial and/or re-treatment) period.\nStudy Population: Subjects were 18-75 years old, diagnosed with major depressive disorder (MDD) with a MADRS total score of ≥28 and a HAM-D total score of ≥20 at Screening and Day 1 (prior to dosing).\nTreatment Groups: The 30 mg and 50 mg dose groups were separated by time of enrollment. The study is comprised of two cohorts: one with Compound (1) 30 mg as a starting dose (30 mg Cohort: n=725), an initial cohort with Compound (1) 50 mg as a starting dose (50 mg Cohort: n=199). A patient receiving Compound (1) 30 mg could be dose reduced to 20 mg and patients receiving Compound (1) 50 mg could be dose reduced to 40 mg (based on tolerability). In all cohorts, Compound (1) is self-administered by patients as an oral therapy once nightly with food for 14 days.\nEligible subjects were given Compound (1)—to be taken at home in the evening with meal.\nThe cohorts pertaining to the different doses that the subjects received were defined as following: • 50 mg cohort: This cohort includes subjects who have initiated treatment with 50 mg and received re-treatment with 50 mg only. • 30 mg cohort: This cohort includes subjects who have initiated treatment with 30 mg regardless of the dose they have received in re-treatments. • Low dose cohort: This cohort includes subjects who have initiated treatment with 30 mg and received re-treatment with 30 mg only. • Dose switch cohort: This cohort includes subjects who have received initial treatment with 30 mg and at least one subsequent re-treatment with 50 mg. • Study Period X: starts on the date of the first dose of Compound (1) in cycle X and goes up to one day prior to the first dose of the next cycle. In some embodiments, X is any number from 1 to 5. • Treatment Period X: starts on the date of the first dose of Compound (1) in cycle X and goes up to one day after the last dose in cycle X. In some embodiments, X is any number from 1 to 5. • Treatment Cycle X: starts on the date of the first dose of Compound (1) in cycle X and goes up to 14 days after the last dose in cycle X. The treatment cycles may be denoted as C1-C5. • Observation period X: starts the day after Treatment Cycle X ends and goes up to one day prior to the start of next treatment cycle. In some embodiments, X is any number from 1 to 5.\nAnalysis Sets: The safety set was defined as all subjects who were administered study drug. The period-specific safety set includes subjects in the safety set who were administered study drug in the corresponding treatment cycle. […]",
  "key": {"[1]": {"conditions": "Day 15 of first treatment cycle, overall study population"}, "[2]": {"conditions": "Dose Switch Cohort (FAS), first dose in cycle 30 mg, Cycle 2, Day 15"}, "[3]": {"conditions": "Dose Switch Cohort (FAS), first dose in cycle 30 mg, Cycle 3, Day 15"}, "[4]": {"conditions": "Dose Switch Cohort (FAS), first dose in cycle 30 mg, Cycle 4, Day 15"}, "[5]": {"conditions": "Low Dose Cohort (FAS), of Non-responders at D15 in C3 (N = 33)"}, "[6]": {"conditions": "Low Dose Cohort (FAS), of Non-responders at D15 in C4 (N = 18)"}, "[7]": {"conditions": "Low Dose Cohort (FAS), of Non-responders at D15 in C5 (N = 7)"}, "[8]": {"conditions": "Low Dose Cohort (FAS), subjects dosed in Cycle 2 (199), Cycle 1, Day 15"}, "[9]": {"conditions": "Low Dose Cohort (FAS), subjects dosed in Cycle 2 (199), Cycle 1, Day 28"}, "[10]": {"conditions": "Low Dose Cohort (FAS), subjects dosed in Cycle 2 (199), Cycle 2, Day 15"}, "[11]": {"conditions": "Low Dose Cohort (FAS), subjects dosed in Cycle 2 (199), Cycle 2, Day 28"}, "[12]": {"conditions": "Low Dose Cohort (FAS), subjects dosed in Cycle 3 (83), Cycle 1, Day 15"}, "[13]": {"conditions": "Low Dose Cohort (FAS), subjects dosed in Cycle 3 (83), Cycle 2, Day 15"}, "[14]": {"conditions": "Low Dose Cohort (FAS), subjects dosed in Cycle 3 (83), Cycle 2, Day 28"}, "[15]": {"conditions": "Low Dose Cohort (FAS), subjects dosed in Cycle 3 (83), Cycle 3, Day 15"}, "[16]": {"conditions": "Low Dose Cohort (FAS), subjects dosed in Cycle 3 (83), Cycle 3, Day 28"}},
  "data": [
    {"smiles": "C[C@@]1(O)CC[C@H]2[C@H](CC[C@@H]3[C@@H]2CC[C@]2(C)[C@@H](C(=O)Cn4cc(C#N)cn4)CC[C@@H]32)C1", "note": "[Compound (1), 1-(2-((3R,5R,8R,9R,10S,13S,14S,17S)-3-hydroxy-3,13-dimethylhexadecahydro-1H-cyclopenta[a]phenanthren-17-yl)-2-oxoethyl)-1H-pyrazole-4-carbonitrile]", "values": [
      {"measurement": "Withdrawn in Treatment Cycle 1: Exit for non-response, n (%)", "setting": "50 mg Cohort (n = 199)", "value": "31 (15.6%)"},
      {"measurement": "Subjects achieving remission (HAM-D less than or equal to 7)", "setting": "50 mg Cohort, Day 15 Treatment Cycle 1, Example 4, 80 subjects of 199", "value": 40.2, "unit": "%"},
      {"measurement": "Subjects achieving response (at least 50% reduction in HAM-D from baseline)", "setting": "50 mg Cohort, Day 15 Treatment Cycle 1, Example 4, about 149 subjects of 199", "value": 74.9, "unit": "%"},
      {"measurement": "HAMD-17 remission rate", "setting": "[1]", "value": 40.8, "unit": "%"},
      {"measurement": "HAMD-17 response rate", "setting": "[1]", "value": 75.0, "unit": "%"},
      {"measurement": "Mean (SD) CFB in HAMD-17", "setting": "Day 15 of first treatment cycle, overall study population (30 mg and 50 mg Cohorts)", "value": "−15.4 (6.9)"},
      {"measurement": "Responders at D15 in C1 who did not discontinue in C1 (FAS), % of subjects dosed in C1", "setting": "Dose Switch Cohort (80 dosed)", "value": "80 (100%)"},
      {"measurement": "HAM-D Total Score, Mean Change from Period-Specific Baseline", "setting": "[2]", "value": "−15.5"},
      {"measurement": "HAM-D Total Score, Mean Percent Change from Period-Specific Baseline", "setting": "[2]", "value": "−59.1"},
      {"measurement": "HAM-D Total Score, Mean Change from Period-Specific Baseline", "setting": "[3]", "value": "−15.8"},
      {"measurement": "HAM-D Total Score, Mean Percent Change from Period-Specific Baseline", "setting": "[3]", "value": "−60.0"},
      {"measurement": "HAM-D Total Score, Mean Change from Period-Specific Baseline", "setting": "[4]", "value": "−14.8"},
      {"measurement": "HAM-D Total Score, Mean Percent Change from Period-Specific Baseline", "setting": "[4]", "value": "−60.0"},
      {"measurement": "Responders at D15 in C1 who did not discontinue in C1 (FAS), % of subjects dosed in C1", "setting": "Low Dose Cohort (645 dosed)", "value": "409 (63.4%)"},
      {"measurement": "HAM-D Non-responder rate at D15 (of subjects dosed in cycle)", "setting": "Low Dose Cohort (FAS), C2 (N = 70 of 199)", "value": "(N = 70, 35.2%)"},
      {"measurement": "HAM-D Non-responder rate at D15 (of subjects dosed in cycle)", "setting": "Low Dose Cohort (FAS), C3 (N = 33 of 83)", "value": "(N = 33, 39.8%)"},
      {"measurement": "HAM-D Non-responder rate at D15 (of subjects dosed in cycle)", "setting": "Low Dose Cohort (FAS), C4 (N = 18 of 43)", "value": "(N = 18, 41.9%)"},
      {"measurement": "HAM-D Non-responder rate at D15 (of subjects dosed in cycle)", "setting": "Low Dose Cohort (FAS), C5 (N = 7 of 20)", "value": "(N = 7, 35%)"},
      {"measurement": "Status in C2: Non-responder", "setting": "[5]", "value": "(57.6%)"},
      {"measurement": "Status in C2: Responder", "setting": "[5]", "value": "(42.4%)"},
      {"measurement": "Status in C2: Non-responder", "setting": "[6]", "value": "(55.6%)"},
      {"measurement": "Status in C2: Responder", "setting": "[6]", "value": "(44.4%)"},
      {"measurement": "Status in C3: Non-responder", "setting": "[6]", "value": "9 (50.0%)"},
      {"measurement": "Status in C3: Responder", "setting": "[6]", "value": "(50.0%)"},
      {"measurement": "Status in C2: Non-responder", "setting": "[7]", "value": "(85.7%)"},
      {"measurement": "Status in C2: Responder", "setting": "[7]", "value": "(14.3%)"},
      {"measurement": "Status in C3: Non-responder", "setting": "[7]", "value": "3 (42.9%)"},
      {"measurement": "Status in C3: Responder", "setting": "[7]", "value": "(57.1%)"},
      {"measurement": "Status in C4: Non-responder", "setting": "[7]", "value": "5 (71.4%)"},
      {"measurement": "Status in C4: Responder", "setting": "[7]", "value": "1 (14.4%)"},
      {"measurement": "HAM-D Total Score, Mean Change from Period-Specific Baseline", "setting": "[8]", "value": "−17.4"},
      {"measurement": "HAM-D Total Score, Mean Percent Change from Period-Specific Baseline", "setting": "[8]", "value": "−70.0"},
      {"measurement": "HAM-D Total Score, Mean Change from Period-Specific Baseline", "setting": "[9]", "value": "−13.8"},
      {"measurement": "HAM-D Total Score, Mean Percent Change from Period-Specific Baseline", "setting": "[9]", "value": "−55.2"},
      {"measurement": "HAM-D Total Score, Mean Change from Period-Specific Baseline", "setting": "[10]", "value": "−12.3"},
      {"measurement": "HAM-D Total Score, Mean Percent Change from Period-Specific Baseline", "setting": "[10]", "value": "−52.6"},
      {"measurement": "HAM-D Total Score, Mean Change from Period-Specific Baseline", "setting": "[11]", "value": "−11.5"},
      {"measurement": "HAM-D Total Score, Mean Percent Change from Period-Specific Baseline", "setting": "[11]", "value": "−49.1"},
      {"measurement": "HAM-D Total Score, Mean Change from Period-Specific Baseline", "setting": "[12]", "value": "−17.2"},
      {"measurement": "HAM-D Total Score, Mean Percent Change from Period-Specific Baseline", "setting": "[12]", "value": "−68.8"},
      {"measurement": "HAM-D Total Score, Mean Change from Period-Specific Baseline", "setting": "Low Dose Cohort (FAS), subjects dosed in Cycle 3 (83), Cycle 1, Day 28", "value": "83, −12.7, —"},
      {"measurement": "HAM-D Total Score, Mean Change from Period-Specific Baseline", "setting": "[13]", "value": "−12.7"},
      {"measurement": "HAM-D Total Score, Mean Percent Change from Period-Specific Baseline", "setting": "[13]", "value": "−52.9"},
      {"measurement": "HAM-D Total Score, Mean Change from Period-Specific Baseline", "setting": "[14]", "value": "−11.2"},
      {"measurement": "HAM-D Total Score, Mean Percent Change from Period-Specific Baseline", "setting": "[14]", "value": "−46.5"},
      {"measurement": "HAM-D Total Score, Mean Change from Period-Specific Baseline", "setting": "[15]", "value": "−12.5"},
      {"measurement": "HAM-D Total Score, Mean Percent Change from Period-Specific Baseline", "setting": "[15]", "value": "−52.4"},
      {"measurement": "HAM-D Total Score, Mean Change from Period-Specific Baseline", "setting": "[16]", "value": "−11.9"},
      {"measurement": "HAM-D Total Score, Mean Percent Change from Period-Specific Baseline", "setting": "[16]", "value": "−49.8"},
      {"measurement": "HAM-D Total Score, Mean Change from Period-Specific Baseline", "setting": "Low Dose Cohort (FAS), subjects dosed in Cycle 4 (43), Cycle 1, Day 15", "value": "−17.0"}
    ]}
  ]
}
